Literature values as cited in patent US20250319037A1, “METHODS OF DELIVERING THERAPEUTIC AGENTS, AND LIPID COMPOSITIONS” (FUJIFILM Corporation, priority 2022, published 2025).

Conditions: Non-patent documents 11 and 12

## CC(C)CCC[C@@H](C)[C@H]1CC[C@H]2[C@@H]3CC=C4C[C@@H](OC(=O)NCCN(C)C)CC[C@]4(C)[C@H]3CC[C@]12C [DC-cholesterol]
  pKa of the tertiary amine group: 7.8
